These results are taken from patent publication US8853188B2, “Compositions and methods for cancer treatment” (Women and Infants Hospital of RI, Inc., priority 2005, dated 2014).

The star is where a group is joined. Cbz = O=C(OCc1ccccc1)*; CH2F = FC*

In data set [1] the test system is panel of cancer cells. As to the kind of experiment: Antiproliferative and cytotoxic activity on a panel of cancer cells (MTS, 96 well plates). To be noted: parent compound used as control; data not shown. In kind it is cell-based. From the text: A panel of cancer cells is used to evaluate the antiproliferative and cytotoxic activities of B3CD and related analogs. The cells include colon (Colo), breast (MCF-7 and MDA-MB-231), lung (A549), prostate PC3 and LNCaP), melanoma (SK-MEL-31), renal (Caki-1), ovarian (OVCAR-3), bladder (T24), pancreatic (BxPC-3), hepatocarcinoma (Hep3B), neuroblastoma (SH-SY5Y), glioblastoma (SNB-19), medulloblastoma (D283 Med), skin (LS123), squamous cell carcinoma (Scc-15), acute promyelocytic leukemia (APL), myeloblastic (HL-60) and myelomonocytic (U937).
The anticancer activity testing will be carried out by high throughput screening. The cancer cells will be cultured in 96 well plates and treated with the library. B3CD has been tested in this system and was effective at a 200 nM dose. For general screening, 2-200 nM doses will be used. Cells will be treated with the compounds for 12, 24, 48 and 72 hours. A 96 well plate format allows testing a large number of compounds simultaneously. An MTS based colorimetric method of evaluation of proliferation will be utilized, which is widely used in cancer drug discovery. The fingerprint of profiled drugs using 60 cell-line screening program by NCl using COMPARE algorithm (Paull K D, Shoemaker R H, Hodes L, Monks A, Scudiero D A, Rubinstein L, Plowman J, Boyd M R. Display and analysis of patterns of differential activity of drugs against human tumor cell lines: development of mean graph and COMPARE algorithm. J Natl Cancer Inst 1989; 81:1088).
(§1) Materials and methods. Proliferation was measured by MTS and BrdU incorporation assays. Apoptosis was assessed by DNA fragmentation, Cell Death Detection ELISA and caspase-3-assays. Effect of B3CD on TrkB signaling by BDNF was assessed by Western Blot analysis of AKT and ERK phosphorylation. The effect on angiogenesis was determined by chick chorioallantoic membrane (CAM) assay and aortic ring assay.

Data set [2] deals with SK-N-SH cells. As to the kind of experiment: Cell viability by MTS assay. In kind it is cell-based. To be noted: 0-800 nM, 48 hours. Here is the method:
(§2) SK-N-SH and SH-SY5Y neuroblastic cells were treated with increasing doses of calcidiol or B3CD (0, 25, 50, 100, 200, 400 and 800 nM) for 48 hours. Cell viability was assessed by MTS assay and proliferation was determined by BrdU incorporation assay.
(Tetrazolium assays rely on reduction of a dye to a coloured formazan, in cell work by metabolically active cells.)

Data set [3] has as its system caspase-3. The experiment in a line: Caspase-3 activation with specific substrate in SK-N-SH cells. In kind it is cell-based. The method, then:
Caspases are integral to apoptosis in cells. Following the treatment of SK-N-SH cells with 250 nM B3CD, activation of caspase-3 was measured by using specific substrate.

Data set [4] has as its system VEGF induced angiogenesis. As to the kind of experiment: Chick chorioallantoic membrane (CAM) assay. In kind it is in vivo. To be noted: VEGF present. The method, then:
as §1
The antiproliferative effect of B3CD on endothelial cells was further investigated.
The ability of B3CD to inhibit angiogenesis/neovascularization was tested. Preliminary studies were carried out using chick chorioallantoic membrane (CAM) assay. Calcidiol or B3CD were deposited in the presence of growth factor (VEGF) and deposited on the CAM and eggs were incubated for 3 days at 37° C. (3% CO2). The control carried the growth factor alone. VEGF induces angiogenesis which results in sprouting of capillaries from the large vessels. The compounds diffuse out and any inhibitory molecule would reduce the growth of blood vessel network.

In data set [5] the test system is SK-N-SH cells. The experiment in a line: Proliferation by BrdU incorporation assay. In kind it is cell-based. The following applies: 0-800 nM, 48 hours. The method, then:
as §2

The conditions of data set [6]: mouse, in vivo. The method, then: FIG. 6A. In vivo studies to determine apparent systemic toxicity of B3CD. Mice were injected with the specified amounts of B3CD (i.p.) once in 48 hr for 28 days. The animals were weighed to assess the effect of B3CD on change in body weight.
FIG. 6B. At the end of the experiment (6A) mice were sacrificed and blood collected to estimate serum calcium as a measure of hypercalcemia.
A major concern was the potential systemic toxicity of B3CD due to hypercalcemia since B3CD (FIG. 1) is a derivative of calcidiol, which is a family member of calcitriol (Schmidt-Gayk H, Bouillon R, Roth H J. Measurement of vitamin D and its metabolites (calcidiol and calcitriol) and their clinical significance. Scand J Clin Lab Invest Suppl. 1997; 227:35-45). Therapeutic doses of calcitriol lead to increased serum calcium and consequently death; therefore, hypercalcemia is a hallmark of lethality of pharmacologic doses of calcitriol. In the event that further testing in vivo might show lethal calcemic side effects, preliminary studies were carried out to determine any overt toxic effects in a murine model.
The effect of B3CD on serum calcium levels in SCID mice was tested. These studies were carried out in Boston University School of Medicine, Boston, Mass., in accordance with institutional guidelines. B3CD, calcidiol and calcitriol were formulated in 80% polyethylene glycol in PBS and were administered as i.p. injections once in 48 hours for 28 days. Animals were euthanized, sera collected and analyzed immediately for serum calcium in the hospital core facility. The animals were divided into 4 groups of 5 animals each.

Data set [7] has as its system SH-SY5Y, IMR-32 and SMS-KCNR cells. The following applies: cells with defects in caspase-8 activation; cited from earlier work.
In data set [8] the test system is SMS-KCNR cells. As to the kind of experiment: Apoptosis in apoptosis-resistant NB cells. It is filed as cell-based. The following applies: pretreatment before B3CD. Here is the method: (§3) NB is characterized with defective apoptotic pathways. […] Neuronal (N-) type SH-SY5Y and IMR-32 cells, and stromal (S-) type SMS-KCNR cells which are resistant to apoptosis were used. […] A defect in caspase-8 or its activation causes resistance to apoptosis and in turn to chemotherapy in all these cells. On the other hand, these cells carry intact intrinsic apoptotic pathway, and executioner caspase-3 is activated by caspase-9 route.
(§4) In depth studies were carried out to assess the activation of intrinsic and extrinsic apoptotic pathways. […] Caspase-9 was activated by B3CD in these cells (FIG. 10B), indicating an active role of intrinsic pathway of apoptosis. […] However, caspase-8 was undetectable in IMR-32 and SH-SY5Y cells.
(§5) Although caspase-8 was detected in SMS-KCNR cells, it was not activated by B3CD (FIG. 10D). Actin immunoblotting was used as loading control in the above studies (data not shown).

Data set [9] deals with IMR-32 cells. As to the kind of experiment: Apoptosis in apoptosis-resistant NB cells. In kind it is cell-based. The following applies: IMR-32, pretreatment before B3CD. The method, then: as §3, §4, §5

On to `C=C1CC[C@H](O)C/C1=C/C=C1\CCC[C@@]2(C)C1CC[C@@H]2[C@H](C)CCCC(C)(C)O` (stereo partly drawn) [calcidiol, (1 S,Z)-3-(2-((1R,7aR,E)-1-((R)-6-hydroxy-6-methylheptan-2-yl)-7a-methyloctahydro-4H-inden-4-ylidene)ethylidene)-4-methylenecyclohexan-1-ol, reference compound], for which the “antiproliferative, cytotoxic, apoptotic activities” value in [1] is listed as “did not exhibit any antiproliferative, cytotoxic, apoptotic activities”. In [2], the “viability of SK-N-SH cells (in words)” value is given as “did not show any similar effects”. The “caspase-3 activation (in words)” value in data set [3] is on record as “did not show any significant change”. Also, the “inhibition of angiogenesis / neovascularization (in words)” value in data set [4] is reported as “no inhibition of neovascularization”. Also, the “proliferation, BrdU incorporation” value in [5] was “did not show inhibitory activity”.
As for `C=C1/C(=C\C=C2/CCC[C@]3(C)[C@@H]([C@H](C)CCCC(C)(C)O)CC[C@@H]23)C[C@@H](O)C[C@@H]1O` [calcitriol, 1,25-dihydroxy-vitamin D3, reference compound], in data set [6], the “clinical signs (lethargy, tolerance to handling, mobility)” value was “appeared lethargic and exhibited a decreased tolerance to handling with reduced mobility”.
Turning to `COc1cccc2c1C(=O)c1c(O)c3c(c(O)c1C2=O)C[C@@](O)(C(=O)CO)C[C@@H]3O[C@H]1C[C@H](N)[C@H](O)[C@H](C)O1` [doxorubicin], the “apoptosis and activation of caspase-9 and -3” value in [7] was “undergo apoptosis and activation of caspase-9 and -3”.
On to Cbz-LEHD-CH2F [reference compound], for which the “effect of pretreatment on B3CD induced apoptosis” value in [8] and in data set [9] was “effectively inhibited apoptosis” each time.
